These results are taken from patent US20250019374A1, “PROTEIN TYROSINE PHOSPHATASE INHIBITORS AND METHODS OF USE THEREOF” (Calico Life Sciences LLC, priority 2021, published 2025).

Read-outs that look alike come from different tables or passages of the source.

The target in experiment [1] is His tagged PTPN2 (TC45) protein (Homo sapiens (Human), UniProt P17706). The experiment in a line: PTPN2 Mobility Shift Assay (MSA). As to conditions: for Dihydrobenzofuran or Indoline x-fold>potency biochemical: x-fold versus corresponding chromane comparator, PTPN2 MSA. The format is biochemical. Here is the method: Example III-1: Mobility Shift Assay (MSA) Used to Determine Potency of PTPN2 Inhibitors
Compound activity was determined using in house His tagged PTPN2 (TC45) protein (SEQ ID NO: 1) in an in vitro enzymatic reaction. The enzymatic assay used to determine activity was a mobility shift assay using a LabChip EZ Reader by Caliper Life Sciences. The enzymatic reaction was carried out in assay buffer (50 mM HEPES pH 7.5, 1 mM EGTA, 10 mM EDTA, 0.01% Tween® 20, and 2 mM DTT). The compounds were dispensed on a white 384 well ProxiPlate™ (PerkinElmer Catalog #6008289) plate using the Labcyte Echo at varying concentrations (12 point, 1:3 dilution). The enzyme (at 0.5 nM) was incubated with compound for 10 minutes at room temperature. Thereafter, the substrate (phosphorylated insulin receptor probe sequence: ((OG488)-(NH—CH2—CH2—O—CH2—CH2—O—CH2—CO)-T-R-D-I—(PY)-E-T-D-Y—Y—R—K—K—NH2) (SEQ ID NO: 2) was added at 2 μM to the plates and incubated for another 10 minutes at room temperature. Finally, a quench solution (water and 4-bromo-3-(2-oxo-2-propoxyethoxy)-5-(3-{[1-(phenylmethanesulfonyl)piperidin-4-yl]amino}phenyl)thiophene-2-carboxylic acid) was added to the plates, which were then run on the EZ Reader (excitation 488 nm, emission 530 nm) to measure % conversion (the amount of phosphorylated substrate which was de-phosphorylated by PTPN2). […] The % inhibition was then used to calculate the IC50 values.

For experiment [2], the system named is IFNγ-induced STAT1 phosphorylation (pSTAT1) in B16F10 cells. The experiment in a line: B16F10 Phospho-STAT1 HTRF proximal pharmacodynamic (PD) assay. The format is cell-based, murine. The following applies: for EC50: B16-F10, B16F10 cells; for Dihydrobenzofuran or Indoline x-fold>potency cellular: x-fold versus corresponding chromane comparator, B16F10 pSTAT1. Here is the method:
Example III-3: B16F10 (Murine Melanoma Cells) Phospho-STAT1 HTRF Proximal Pharmacodynamic (PD) Assay
B16F10 cells were grown and maintained in high glucose DMEM (Gibco, Catalog^#11965-092, Dun Laoghaire Co Dublin) supplemented with 10% fetal bovine serum (Gibco, Catalog^#10082-139, Dun Laoghaire Co Dublin). The cells were pelleted and resuspended in high glucose DMEM without phenol red (Gibco, Catalog^#11054-020, Dun Laoghaire Co Dublin), supplemented with 10% fetal bovine serum and plated in a 384 well Corning plate (product^#3765, Corning, NY) at 11,000 cells per well in a volume of 20 μL. The cells were dosed with the compounds of interest using an Echo Liquid Handler (Beckman Coulter, Brea, CA) at 50 μM top dose with 3-fold dilutions down to 0.002679 μM for a 10-point dose response. The plate was incubated for 3 hours at 37° C. and subsequently treated with recombinant mouse IFNγ (R&D Systems, Catalog^#485-MI, Minneapolis, MN; 100 nM final concentration) for 10 minutes at 37° C. to induce STAT1 phosphorylation followed by 3.3 μM staurosporine treatment for 1 hour at 37° C. to terminate phosphorylation. Media was then aspirated and 20 μL of 1× lysis buffer/blocking reagent (Cisbio Phospho-STAT1 kit, part^# 63ADK026PEH, Bedford, MA) was added. The plate was placed on a plate shaker for 30 minutes at room temperature, sealed, and stored at −80° C. until needed. To thaw, the plate was placed on shaker at room temperature until completely thawed while the antibody master mix was made (1:40 Phospho-STAT1 Eu Cryptate antibody, 1:40 Phospho-STAT d2 antibody, with the detection buffer; Cisbio Phospho-STAT1 kit, part^#63ADK026PEH, Bedford, MA). The antibody master mix was then dispensed at 4 μL per well into a 384 ProxiPlate Plus (PerkinElmer, part^#6008289, Waltham, MA) and 16 μL of lysate was added from the Corning plate to the Proxiplate using a VIAFLO 384 (INTEGRA). The plate was incubated for 3 hours at room temperature and read on an EnVision® (Perkin Elmer) plate reader with laser excitation at 335 nm and emission at 665 nm. Dotmatics Studies (Bishop's Stortford, UK) was utilized to generate all dose-response curves and calculate EC50s and are shown in Table 2.
Background: Time-resolved FRET reads energy transfer from a long-lived donor to a nearby acceptor.

Experiment [3] concerns the target His tagged full-length PTPN1 protein (Homo sapiens (Human), UniProt P18031). The experiment in a line: PTPN1 Mobility Shift Assay (MSA). The format is biochemical. As to conditions: enzyme 0.5 nM, substrate 2 μM. How it is done: Example III-2: Mobility Shift Assay (MSA) Used to Determine Potency of PTPN1 Inhibitors
Compound activity was determined using in house His tagged full-length PTPN1 protein (SEQ ID NO: 3) in an in vitro enzymatic reaction. The enzymatic assay used to determine activity is a mobility shift assay using a LabChip EZ Reader by Caliper Life Sciences. The enzymatic reaction was carried out in assay buffer (50 mM HEPES pH 7.5, 1 mM EGTA, 10 mM EDTA, 0.01% Tween® 20, and 2 mM DTT). The compounds were dispensed on a white 384 well ProxiPlate™ (PerkinElmer Cat ^#6008289) plate using a Labcyte Echo® liquid handler at varying concentrations (12 point, 1:3 dilution). The enzyme (at 0.5 nM) was incubated with compound for 10 minutes at room temperature. Thereafter, the substrate (phosphorylated insulin receptor probe sequence: ((OG488)-(NH—CH2—CH2—O—CH2—CH2—O—CH2—CO)-T-R-D-I—(PY)-E-T-D-Y—Y—R—K—K—NH2) (SEQ ID NO: 2) was added at 2 μM to the plates and incubated for another 10 minutes at room temperature. Finally, a quench solution (water and 4-bromo-3-(2-oxo-2-propoxyethoxy)-5-(3-{[1-(phenylmethanesulfonyl)piperidin-4-yl]amino}phenyl)thiophene-2-carboxylic acid) was added to the plates, which were then run on the EZ Reader (excitation 488 nm, emission 530 nm) to measure % conversion (the amount of phosphorylated substrate which was de-phosphorylated by PTPN1). […] The % inhibition was then used to calculate the IC50 values.

Where [4] appears, read: Table 3, dihydrobenzofuran or indoline compound (X = O or NH).
Where [5] appears, read: 3 hours compound, 100 nM mouse IFNγ 10 minutes, read-out: B16F10 IFNγ Induced pSTAT1 EC50.
Where [6] appears, read: Mus musculus, Table 3, dihydrobenzofuran or indoline compound (X = O or NH), read-out: pSTAT1 EC50.

His tagged PTPN2 (TC45) protein, sequence (P17706 other isoform, or with tags, fused parts or gaps): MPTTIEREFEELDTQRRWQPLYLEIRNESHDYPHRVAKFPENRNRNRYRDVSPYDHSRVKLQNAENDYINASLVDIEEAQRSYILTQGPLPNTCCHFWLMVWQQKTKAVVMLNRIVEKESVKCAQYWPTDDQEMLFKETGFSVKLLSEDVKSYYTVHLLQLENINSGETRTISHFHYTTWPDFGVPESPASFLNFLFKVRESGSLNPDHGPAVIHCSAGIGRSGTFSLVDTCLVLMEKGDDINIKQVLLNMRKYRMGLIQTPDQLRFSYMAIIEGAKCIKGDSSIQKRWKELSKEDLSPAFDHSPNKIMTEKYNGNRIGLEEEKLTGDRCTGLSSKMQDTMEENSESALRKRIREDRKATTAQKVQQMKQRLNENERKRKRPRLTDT
His tagged full-length PTPN1 protein, sequence (P18031 whole entry): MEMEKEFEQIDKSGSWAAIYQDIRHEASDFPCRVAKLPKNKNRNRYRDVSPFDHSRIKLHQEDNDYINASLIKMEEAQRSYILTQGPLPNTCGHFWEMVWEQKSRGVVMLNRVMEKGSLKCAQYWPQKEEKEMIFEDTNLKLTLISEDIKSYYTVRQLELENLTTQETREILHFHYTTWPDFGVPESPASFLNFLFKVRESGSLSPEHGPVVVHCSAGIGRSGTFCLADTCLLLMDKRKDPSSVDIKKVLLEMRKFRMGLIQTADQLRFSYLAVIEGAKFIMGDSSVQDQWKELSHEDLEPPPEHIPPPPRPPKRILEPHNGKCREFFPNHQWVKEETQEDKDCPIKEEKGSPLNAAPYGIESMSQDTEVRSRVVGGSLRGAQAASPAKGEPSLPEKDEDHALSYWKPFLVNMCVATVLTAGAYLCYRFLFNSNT

In general, IC50 refers to the point on the concentration scale where inhibition reaches its midpoint. Broadly, the EC50 is the midpoint of the concentration-response curve. As to `O=C1CN(c2c(O)cc3c(c2F)C[C@H](CNCCCC(F)F)O3)S(=O)(=O)N1` [Compound 107, 5-[(2R)-2-{[(4,4-difluorobutyl)amino]methyl}-4-fluoro-6-hydroxy-2,3-dihydro-1-benzofuran-5-yl]-1λ^6,2,5-thiadiazolidine-1,1,3-trione], the half-maximal inhibitory concentration (IC50) was 13.3 nM in experiment [1] (setting [4]); 10 to 100 nM in experiment [1] (enzyme 0.5 nM, substrate 2 μM); 10 to 100 nM in experiment [3]. The “Dihydrobenzofuran or Indoline x-fold>potency biochemical” value in experiment [1] is 0.7. For the same molecule, the half-maximal effective concentration (EC50) in experiment [2] (setting [5]) and in experiment [2] (setting [6]) was 1330 nM each time. In addition, the “Dihydrobenzofuran or Indoline x-fold>potency cellular” value in experiment [2] is 2.7.
Regarding `O=C1CN(c2c(O)cc3c(c2F)C[C@H](CNCCC2CCOC2)O3)S(=O)(=O)N1` (stereo partly drawn) [Compound 108, 5-[(2R)-4-fluoro-6-hydroxy-2-({[2-(oxolan-3-yl)ethyl]amino}methyl)-2,3-dihydro-1-benzofuran-5-yl]-1λ^6,2,5-thiadiazolidine-1,1,3-trione], the IC50 in experiment [1] (setting [4]) is 15.8 nM; in experiment [1] (enzyme 0.5 nM, substrate 2 μM) it was 10 to 100 nM; in experiment [3], 10 to 100 nM. For the same molecule, the “Dihydrobenzofuran or Indoline x-fold>potency biochemical” value in experiment [1] was found to be 2.3. The EC50 in experiment [2] (setting [5]) and in experiment [2] (setting [6]) was 1910 nM throughout. The “Dihydrobenzofuran or Indoline x-fold>potency cellular” value in experiment [2] is 11.8.
Consider `CCCNC[C@H]1Cc2c(cc(O)c(N3CC(=O)NS3(=O)=O)c2F)O1` [Compound 109, 5-{(2R)-4-fluoro-6-hydroxy-2-[(propylamino)methyl]-2,3-dihydro-1-benzofuran-5-yl}-1λ^6,2,5-thiadiazolidine-1,1,3-trione], for which the IC50 was 10 to 100 nM in experiment [1] (enzyme 0.5 nM, substrate 2 μM) and 10 to 100 nM in experiment [3]. Also, the 50% effective concentration (EC50) in experiment [2] (setting [5]) was 1350 nM.
For the molecule `CCCN(CCC)C[C@H]1Cc2c(cc(O)c(N3CC(=O)NS3(=O)=O)c2F)O1` [Compound 110, 5-{(2R)-2-[(dipropylamino)methyl]-4-fluoro-6-hydroxy-2,3-dihydro-1-benzofuran-5-yl}-1λ^6,2,5-thiadiazolidine-1,1,3-trione], the half-inhibitory concentration (IC50) lay in the range of 10 to 100 nM in experiment [1] (enzyme 0.5 nM, substrate 2 μM) and 10 to 100 nM in experiment [3]. Moreover, the EC50 in experiment [2] (setting [5]) is 18000 nM.
For `CCCCNC[C@H]1Cc2c(cc(O)c(N3CC(=O)NS3(=O)=O)c2F)O1` [Compound 111, 5-{(2R)-2-[(butylamino)methyl]-4-fluoro-6-hydroxy-2,3-dihydro-1-benzofuran-5-yl}-1λ^6,2,5-thiadiazolidine-1,1,3-trione], the IC50 in experiment [1] (enzyme 0.5 nM, substrate 2 μM) fell in the range of 10 to 100 nM; in experiment [3], 10 to 100 nM. Moreover, the EC50 in experiment [2] (setting [5]) turned out to be 1110 nM.
Turning to `CCNC[C@H]1Cc2c(cc(O)c(N3CC(=O)NS3(=O)=O)c2F)O1` [Compound 112, 5-{(2R)-2-[(ethylamino)methyl]-4-fluoro-6-hydroxy-2,3-dihydro-1-benzofuran-5-yl}-1λ^6,2,5-thiadiazolidine-1,1,3-trione], the 50% inhibitory concentration (IC50) was in the range of 10 to 100 nM in experiment [1] (enzyme 0.5 nM, substrate 2 μM) and 10 to 100 nM in experiment [3]. Further, the EC50 in experiment [2] (setting [5]) was 776 nM.
Turning to `O=C1CN(c2c(O)cc3c(c2F)C[C@H](CNCC2CCCC2)O3)S(=O)(=O)N1` [Compound 113, 5-[(2R)-2-{[(cyclopentylmethyl)amino]methyl}-4-fluoro-6-hydroxy-2,3-dihydro-1-benzofuran-5-yl]-1λ^6,2,5-thiadiazolidine-1,1,3-trione], the IC50 in experiment [1] (enzyme 0.5 nM, substrate 2 μM) lay in the range of 10 to 100 nM; in experiment [3] it was 10 to 100 nM. Further, the half-maximal effective concentration (EC50) in experiment [2] (setting [5]) stood at 770 nM.
For `O=C1CN(c2c(O)cc3c(c2F)C[C@H](CNCC2CCOCC2)O3)S(=O)(=O)N1` [Compound 114, 5-[(2R)-4-fluoro-6-hydroxy-2-({[(oxan-4-yl)methyl]amino}methyl)-2,3-dihydro-1-benzofuran-5-yl]-1λ^6,2,5-thiadiazolidine-1,1,3-trione], the 50% inhibitory concentration (IC50) in experiment [1] (enzyme 0.5 nM, substrate 2 μM) was in the range of 10 to 100 nM; in experiment [3], 10 to 100 nM. The EC50 in experiment [2] (setting [5]) turned out to be 1460 nM.
In the case of `CC(C)CCNC[C@H]1Cc2c(cc(O)c(N3CC(=O)NS3(=O)=O)c2F)O1` [Compound 115, 5-[(2R)-4-fluoro-6-hydroxy-2-{[(3-methylbutyl)amino]methyl}-2,3-dihydro-1-benzofuran-5-yl]-1λ^6,2,5-thiadiazolidine-1,1,3-trione], the half-maximal inhibitory concentration (IC50) in experiment [1] (setting [4]) is 17.1 nM; in experiment [1] (enzyme 0.5 nM, substrate 2 μM), 10 to 100 nM; in experiment [3], 10 to 100 nM. The “Dihydrobenzofuran or Indoline x-fold>potency biochemical” value in experiment [1] worked out at 0.9. The 50% effective concentration (EC50) in experiment [2] (setting [5]) and in experiment [2] (setting [6]) was 835 nM throughout. In addition, the “Dihydrobenzofuran or Indoline x-fold>potency cellular” value in experiment [2] is recorded as 8.3.
Take `CCC(C)CNC[C@H]1Cc2c(cc(O)c(N3CC(=O)NS3(=O)=O)c2F)O1` (stereo partly drawn) [Compound 116, 5-[(2R)-4-fluoro-6-hydroxy-2-{[(2-methylbutyl)amino]methyl}-2,3-dihydro-1-benzofuran-5-yl]-1λ^6,2,5-thiadiazolidine-1,1,3-trione]: the IC50 fell in the range of 10 to 100 nM in experiment [1] (enzyme 0.5 nM, substrate 2 μM) and 10 to 100 nM in experiment [3]. Further, in experiment [2] (setting [5]), the EC50 was 736 nM.
For `O=C1CN(c2c(O)cc3c(c2F)C[C@H](CNCC2CC2)O3)S(=O)(=O)N1` [Compound 117, 5-[(2R)-2-{[(cyclopropylmethyl)amino]methyl}-4-fluoro-6-hydroxy-2,3-dihydro-1-benzofuran-5-yl]-1λ^6,2,5-thiadiazolidine-1,1,3-trione], the concentration for half-maximal inhibition (IC50) was in the range of 10 to 100 nM in experiment [1] (enzyme 0.5 nM, substrate 2 μM) and 10 to 100 nM in experiment [3]. In addition, in experiment [2] (setting [5]), the EC50 was determined as 818 nM.
With `O=C1CN(c2c(O)cc3c(c2F)C[C@H](CN(CC2CC2)CC2CC2)O3)S(=O)(=O)N1` [Compound 118, 5-[(2R)-2-{[bis(cyclopropylmethyl)amino]methyl}-4-fluoro-6-hydroxy-2,3-dihydro-1-benzofuran-5-yl]-1λ^6,2,5-thiadiazolidine-1,1,3-trione], the IC50 in experiment [1] (enzyme 0.5 nM, substrate 2 μM) lay within 10 to 100 nM; in experiment [3], 10 to 100 nM. In experiment [2] (setting [5]), the 50% effective concentration (EC50) was found to be 20100 nM.
In the case of `O=C1CN(c2c(O)cc3c(c2F)C[C@H](CNCC2CCC2)O3)S(=O)(=O)N1` [Compound 119, 5-[(2R)-2-{[(cyclobutylmethyl)amino]methyl}-4-fluoro-6-hydroxy-2,3-dihydro-1-benzofuran-5-yl]-1λ^6,2,5-thiadiazolidine-1,1,3-trione], the IC50 in experiment [1] (enzyme 0.5 nM, substrate 2 μM) was in the range of 10 to 100 nM; in experiment [3], 10 to 100 nM. For the same molecule, the half-maximal effective concentration (EC50) in experiment [2] (setting [5]) turned out to be 848 nM.
